The test system of experiment [1] is MCF-7 cells. Nature of the experiment: MTT cell viability assay, MCF-7. Type of experiment: cell-based. Particulars: Homo sapiens, MCF7. The protocol:
(§1) Initially, all synthesized acridone derivatives were evaluated for their cytotoxicity potential on MCF-7, HepG2 and HEK293 cell lines by MTT assay. These synthesized acridone derivatives were screened in the concentration range of 0–200 µM, for 24 and 48 h. […] It was also interesting that in the studied […] concentration range these compounds don’t show considerable cytotoxicity towards HEK293 cell lines. […] Thus, compounds 5, 7b, 7d, 7f and 7h were taken for further cell based studies such as apoptosis and reactive oxygen species (ROS) production.
(§2) To study the effect of synthesized acridone derivatives on cell viability and proliferation, a standard MTT method was carried out. Cells were plated (8000–9000/well) in a 96-well plate and incubated overnight. On the next day, cells were treated with increasing concentrations (0.1–80 μM) of synthesized acridone derivatives in a final volume of 200 µl for 48 h at 37 °C in a humidified chamber. At the end of treatment time point, 20 µl of MTT solution (from 5 mg/ml stock solution in phosphate buffer saline, pH 7.4) was added to each well and incubated further for 4–5 h at 37 °C in the CO2 incubator. After stipulated time the supernatant was aspirated and the colored formazan crystal produced as a result of MTT reduction was dissolved in 100 µl of DMSO. The absorbance (A) of colored product was then measured at 570 nm on a multiplate ELISA reader (BioRad). The percentage of viable cells was calculated and used to estimate the IC50 (50% inhibitory concentration) values for each acridone derivative. For cell proliferation studies paclitaxel has been taken as positive control.
(In general: Tetrazolium assays rely on reduction of a dye to a coloured formazan, in cell work by metabolically active cells.)

The next experiment concerns HepG2 cells. Nature of the experiment: MTT cell viability assay, HepG2. Type of experiment: cell-based. Particulars: Homo sapiens, Table S2. The protocol:
as §1, §2

The subject of experiment [2] is MCF-7 cells. Description: Annexin-V apoptosis assay by flow cytometry. Type of experiment: cell-based, human. The conditions noted are these: IC50 concentration, 24 h, annexin-V staining. The method, then: Evasion of apoptosis is a striking hallmark of cancerous cells, it is an essential process that regulates abnormal growth of cells, but compromised signaling helps the cancerous cells to escape apoptosis. MARK4 overexpression also supports the growth and evasion of cancerous cells. Thus, the probability of apoptosis induction by inhibiting MARK4 was studied. The MCF-7 cells were serum starved and treated with IC50 concentration of each acridone derivative for 24 h and subsequently annexin-V staining was used to assess the apoptotic potential of these compounds.
Figure 6 MARK4 inhibition by selected acridone derivatives induces apoptosis, elicited oxidative stress by inducing ROS production in MCF-7 cells. MCF-7 cells were treated with IC50 concentrations of each compound for 24 h and processed for apoptosis analysis using Annexin V-7AAD apoptosis kit by flow cytometry. (A) Quadrants showing the anti-FITC-Annexin-V stained cells after the treatment of each compound as indicated. (B) Bar graphs represents the percentage of apoptotic MCF-7 cells attained with Annexin-V for duplicate measurements ± SD. **p < 0.001, as compared to control (untreated cells). (For anticancer activities paclitaxel has been taken as positive control). (C) Histogram showing the fluorescence emission intensity of DCF as measured by flow cytometry, MCF-7 cells were treated with IC50 concentrations of each compound for 5–6 h and processed for ROS measurements using DCFDA staining and were quantified by flow cytometry. (D) Representative images of MCF-7 cells stained with DCFDA captured on fluorescence microscope (20 X original magnification) for the assessment of ROS after the treatment of respective compound and intensity of green color represents the levels of ROS.
Annexin-V staining was used to analyse the apoptotic potential of synthesized acridone derivatives as described previously[47],[48]. Briefly, MCF-7 cells were dosed with IC50 concentration of selected acridone derivative for 24 h at 37 °C. The control cells were treated with media only. After 24 h treatment, nearly 2.0–2.5 × 10^6 cells were trypsinized and collected by centrifuging the cell suspension at 1800 rpm for 4 min. Collected cells were washed two times with 5 ml of PBS. Finally, cells were stained with FITC labeled Annexin-V antibodies using FITC-Annexin-V kit according to the manufacturer’s guidelines (BD-Biosciences, USA). Approximately, 10,000 events were analyzed for each sample through flow cytometry on BD LSR II Flow Cytometry Analyzer and FlowJo.

The subject of experiment [3] is MCF-7 cells. Nature of the experiment: ROS measurement by DCFDA staining. Type of experiment: cell-based, human. Particulars: IC50 dose, 5–6 h, flow cytometry. The method, then: The respiratory cycle of mitochondria is the foremost source of reactive oxygen species (ROS), and ROS has the potential to induce cell apoptosis. Thus, it was speculated that the treatment with selected acridone derivatives might lead to the production of ROS. The MCF-7 cells were treated with the IC50 dose of compounds 5, 7b, 7d, 7f and 7h for 5–6 h and ROS levels were quantified by flow cytometry using 2-dichlorofluorescein diacetate (DCFDA) staining.
Besides flow cytometry, levels of ROS were also measured by fluorescence spectroscopy, after treatment with compounds 5, 7b, 7d, 7f and 7h, DCFDA staining and imaging on a fluorescence microscope (Fig. 6D). It is easily observed in the Fig. 6D that the intensifications of green fluorescence in case of treated cells denote the higher levels of ROS.
DCF fluorescence helps to measures innumerable ROS such as H2O2 and hydroxyl radicals. That why DCFDA staining was used to quantify the reactive oxygen species (ROS) level inside the cell as described earlier[17],[41]. Briefly, the MCF-7 cells (70–80% confluent) were incubated with IC50 concentration of each compound and positive control H2O2, respectively in a 24-well culture plates. After 5–6 h incubation of cells with respective compounds, cells were gently washed with 500 μl of prewarmed (at 37 °C) Krebs Ringer buffer (20 mM HEPES, 2 mM MgSO4, 10 mM dextrose, 127 mM NaCl, 1 mM CaCl2 and 5.5 mM KCl), subsequently 10 µM DCFDA (Invitrogen Grand Island, NY) has been added to each well and incubated further for 30 min in dark at 37 °C in a humidified CO2 incubator. After 30 min incubation, the cells were collected by trypsinization and ROS levels were quantified with the help of Flow Cytometry. Nearly 10,000 events for each sample were collected on BD LSR II Flow Cytometry Analyzer, and analyzed with help of FlowJo. For intact cell imaging, cells were washed with PBS, pH 7.4 and imaged for ROS levels estimation using the DCFDA fluorescent dye. Fluorescence images were taken on Nikon-EclipseTS100 microscope.
Background: A flow cytometer gives signals particle by particle.

Experiment [4] concerns phosphorylation of tau protein in SH-SY5Y cells. Nature of the experiment: Tau-phosphorylation assay by flow cytometry. The experiment is classed as cell-based, human. The conditions noted are these: IC50 dose, 24 h. The source says: To see the effect of most potential lead molecules (compound 7b, 7d and 7f) on the substrate protein (tau protein) of MARK4 enzyme inhibition activity studies are extended to a cell-based tau-phosphorylation assay. Cells were allowed to grow in the presence of IC50 dose of compound 7b, 7d and 7f for 24 hrs. Following the treatment, the phosphorylation of tau has been assessed with the help of flow cytometry.
To study the effect of selected lead molecules on the phosphorylation of tau protein (a substrate of MARK4) the SH-SY5Y cells were treated with IC50 dose of compound 7b, 7d and 7 f for 24 h and subjected to FACS based analysis as per our previously published protocols[17],[50].

Where [5] appears, read: Table 1, from MTT, read-out: IC50, (µM), MCF-7.
The mark [6] stands for this setting: MTT, read-out: IC50 for MCF-7 cells.

SMILES strings stand for the structures. Entries after “also recorded” stand apart in the source; their conditions may differ. Where two headings read alike, the source gives them in different places.

In the case of `Cc1ccc(NC(=O)Cn2c3ccccc3c(=O)c3cc(C)ccc32)cc1` [Compound 7f, 2-(2-Methyl-9-oxoacridin-10(9H)-yl)-N-(p-tolyl)acetamide], the half-inhibitory concentration (IC50) in the experiment with MCF-7 cells [1] (setting [5]) is 5.8 ± 1.4 µM; in the experiment with HepG2 cells, 15.2 µM. In the experiment on MCF-7 cells [2], the “apoptosis induced in MCF-7 cells” value was determined as 41.35%. Besides, the ROS levels result in the experiment with MCF-7 cells [3] is “increases the production of ROS; also recorded: induce ROS to a higher extent than compound 5 and 7h”. In addition, the “phosphorylation level of tau protein” value in experiment [4] is “decreases the phosphorylation level of tau protein”.
On to `COc1ccccc1NC(=O)Cn1c2ccccc2c(=O)c2cc(C)ccc21` [Compound 7h, N-(2-methoxyphenyl)-2-(2-methyl-9-oxoacridin-10(9H)-yl)acetamide], for which the half-maximal inhibitory concentration (IC50) in the experiment on MCF-7 cells [1] (setting [6]) is 7.2 ± 1.33 µM; with HepG2 cells it was 19 µM. In the experiment with MCF-7 cells [2], the “apoptosis induced in MCF-7 cells” value was 21.53%. In the experiment on MCF-7 cells [3], the ROS levels result is “increases the production of ROS”.
For `COC(=O)Cn1c2ccccc2c(=O)c2cc(C)ccc21` [Compound 5, Methyl 2-(2-methyl-9-oxoacridin-10(9H)-yl)acetate], in that order: 9.4 ± 1 µM, 16.4 µM, 17.91% and “increases the production of ROS”.
With `Cc1ccc2c(c1)c(=O)c1ccccc1n2CC(=O)NCc1ccccc1` [Compound 7b, N-benzyl-2-(2-methyl-9-oxoacridin-10(9H)-yl)acetamide], the half-inhibitory concentration (IC50) in the experiment with MCF-7 cells [1] (setting [5]) amounted to 5.2 ± 1.2 µM; with HepG2 cells, 13.6 µM. In addition, in the experiment with MCF-7 cells [2], the “apoptosis induced in MCF-7 cells” value was 69.23%. The ROS levels entry in the experiment on MCF-7 cells [3] is “increases the production of ROS; also recorded: induce ROS to a higher extent than compound 5 and 7h”. In addition, the “phosphorylation level of tau protein” value in experiment [4] is given as “decreases the phosphorylation level of tau protein”.
For the compound `COc1ccc(CNC(=O)Cn2c3ccccc3c(=O)c3cc(C)ccc32)cc1` [Compound 7d, N-(4-methoxybenzyl)-2-(2-methyl-9-oxoacridin-10(9H)-yl)acetamide], the 50% inhibitory concentration (IC50) stood at 6.3 ± 1.2 µM in the experiment on MCF-7 cells [1] (setting [5]) and 15.1 µM with HepG2 cells. Moreover, the “apoptosis induced in MCF-7 cells” value in the experiment on MCF-7 cells [2] stood at 43.10%. Besides, in the experiment on MCF-7 cells [3], the ROS levels entry was “increases the production of ROS; also recorded: induce ROS to a higher extent than compound 5 and 7h”. Besides, in experiment [4], the “phosphorylation level of tau protein” value is listed as “decreases the phosphorylation level of tau protein”.

The IC50 is the midpoint of a concentration-inhibition curve.

(Values after paper PMC6368574, “Probing the Inhibition of Microtubule Affinity Regulating Kinase 4 by N-Substituted Acridones” (Scientific Reports, 2019).)
